US7118895B2, “Process for producing aglycon by using diglycosidase and flavor-improved food containing the aglycon and converting agent to be used in the process” (Amano Enzyme Inc., priority 2000, dated 2006)

System: Crude diglycosidase
Experiment: Examination of temperature in the conversion into isoflavone aglycons by diglycosidase using soybean materials
Type: biochemical, Penicillium multicolor IAM7153
Parameters: Decomposition efficiency of glycitin family in roasted soy flour / Decomposition efficiency of daidzin family in roasted soy flour / Decomposition efficiency of genistin family in soymilk / Decomposition efficiency of daidzin family in soymilk / Decomposition efficiency of glycitin family in defatted soybean / Decomposition efficiency of daidzin family in defatted soybean: concentration or dose not given beside the values
Procedure, shortened: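 Soybean materials (50 mg) suspended in 20 mM acetate buffer pH 4.0 reacted with crude diglycosidase diluted to 1.88 AU/mL at 80, 65, 55, 45, 37 or 30° C. Reactions stopped with ethanol at 0, 1, 3 and 6 h; isoflavone glycosides and aglycons in supernatant detected by HPLC.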

[1] = 30° C., heat treatment of enzyme no, reaction time 0 h
[2] = 30° C., heat treatment of enzyme no, reaction time 1 h
[3] = 30° C., heat treatment of enzyme no, reaction time 3 h
[4] = 30° C., heat treatment of enzyme no, reaction time 6 h
[5] = 30° C., heat treatment of enzyme yes, reaction time 6 h
[6] = 30 °C, heat treatment of enzyme: no, 0 h
[7] = 30 °C, heat treatment of enzyme: no, 1 h
[8] = 30 °C, heat treatment of enzyme: no, 3 h
[9] = 30 °C, heat treatment of enzyme: no, 6 h
[10] = 30 °C, heat treatment of enzyme: yes, 6 h
[11] = 45° C., heat treatment of enzyme no, reaction time 0 h
[12] = 45° C., heat treatment of enzyme no, reaction time 1 h
[13] = 45° C., heat treatment of enzyme no, reaction time 3 h
[14] = 45° C., heat treatment of enzyme no, reaction time 6 h
[15] = 45° C., heat treatment of enzyme yes, reaction time 6 h
[16] = 45 °C, heat treatment of enzyme: no, 0 h
[17] = 45 °C, heat treatment of enzyme: no, 1 h
[18] = 45 °C, heat treatment of enzyme: no, 3 h
[19] = 45 °C, heat treatment of enzyme: no, 6 h
[20] = 45 °C, heat treatment of enzyme: yes, 6 h
[21] = 55° C., heat treatment of enzyme no, reaction time 0 h
[22] = 55° C., heat treatment of enzyme no, reaction time 1 h
[23] = 55° C., heat treatment of enzyme no, reaction time 3 h
[24] = 55° C., heat treatment of enzyme no, reaction time 6 h
[25] = 55° C., heat treatment of enzyme yes, reaction time 6 h
[26] = 55 °C, heat treatment of enzyme: no, 0 h
[27] = 55 °C, heat treatment of enzyme: no, 1 h
[28] = 55 °C, heat treatment of enzyme: no, 3 h
[29] = 55 °C, heat treatment of enzyme: no, 6 h
[30] = 55 °C, heat treatment of enzyme: yes, 6 h
[31] = 65° C., heat treatment of enzyme no, reaction time 0 h
[32] = 65° C., heat treatment of enzyme no, reaction time 1 h
[33] = 65° C., heat treatment of enzyme no, reaction time 3 h
[34] = 65° C., heat treatment of enzyme no, reaction time 6 h
[35] = 65° C., heat treatment of enzyme yes, reaction time 6 h
[36] = 65 °C, heat treatment of enzyme: no, 0 h
[37] = 65 °C, heat treatment of enzyme: no, 1 h
[38] = 65 °C, heat treatment of enzyme: no, 3 h
[39] = 65 °C, heat treatment of enzyme: no, 6 h
[40] = 65 °C, heat treatment of enzyme: yes, 6 h
[41] = 80° C., heat treatment of enzyme no, reaction time 0 h
[42] = 80° C., heat treatment of enzyme no, reaction time 1 h
[43] = 80° C., heat treatment of enzyme no, reaction time 3 h
[44] = 80° C., heat treatment of enzyme no, reaction time 6 h
[45] = 80° C., heat treatment of enzyme yes, reaction time 6 h
[46] = 80 °C, heat treatment of enzyme: no, 0 h
[47] = 80 °C, heat treatment of enzyme: no, 1 h
[48] = 80 °C, heat treatment of enzyme: no, 3 h
[49] = 80 °C, heat treatment of enzyme: no, 6 h
[50] = 80 °C, heat treatment of enzyme: yes, 6 h

CC(=O)OC[C@H]1O[C@@H](Oc2cc(O)c3c(=O)c(-c4ccc(O)cc4)coc3c2)[C@H](O)[C@@H](O)[C@@H]1O [acetylgenistin, 6″-O-acetylgenistin]
Decomposition efficiency of genistin family in concentrated soybean protein [1]: 43.1% | Decomposition efficiency of genistin family in defatted soybean [1]: 1.7% | Decomposition efficiency of genistin family in concentrated soybean protein [2]: 43.2% | Decomposition efficiency of genistin family in defatted soybean [2]: 1.3% | Decomposition efficiency of genistin family in concentrated soybean protein [3]: 43.0% | Decomposition efficiency of genistin family in defatted soybean [3]: 0.7% | Decomposition efficiency of genistin family in concentrated soybean protein [4]: 42.5% | Decomposition efficiency of genistin family in defatted soybean [4]: 0.1% | Decomposition efficiency of genistin family in concentrated soybean protein [5]: 41.5% | Decomposition efficiency of genistin family in defatted soybean [5]: 0.4% | Decomposition efficiency of genistin family in roasted soy flour [6]: 45.5% | Decomposition efficiency of genistin family in soymilk [6]: 0.9% | Decomposition efficiency of genistin family in roasted soy flour [7]: 45.3% | Decomposition efficiency of genistin family in soymilk [7]: not detected | Decomposition efficiency of genistin family in roasted soy flour [8]: 43.8% | Decomposition efficiency of genistin family in soymilk [8]: not detected | Decomposition efficiency of genistin family in roasted soy flour [9]: 40.6% | Decomposition efficiency of genistin family in soymilk [9]: not detected | Decomposition efficiency of genistin family in roasted soy flour [10]: 43.8% | Decomposition efficiency of genistin family in soymilk [10]: 0.9% | Decomposition efficiency of genistin family in concentrated soybean protein [11]: 43.0% | Decomposition efficiency of genistin family in defatted soybean [11]: 1.5% | Decomposition efficiency of genistin family in concentrated soybean protein [12]: 42.8% | Decomposition efficiency of genistin family in defatted soybean [12]: 0.8% | Decomposition efficiency of genistin family in concentrated soybean protein [13]: 41.0% | Decomposition efficiency of genistin family in defatted soybean [13]: 0.3% | Decomposition efficiency of genistin family in concentrated soybean protein [14]: 39.6% | Decomposition efficiency of genistin family in defatted soybean [14]: 0.2% | Decomposition efficiency of genistin family in concentrated soybean protein [15]: 38.9% | Decomposition efficiency of genistin family in defatted soybean [15]: 0.2% | Decomposition efficiency of genistin family in roasted soy flour [16]: 45.3% | Decomposition efficiency of genistin family in soymilk [16]: 0.9% | Decomposition efficiency of genistin family in roasted soy flour [17]: 43.6% | Decomposition efficiency of genistin family in soymilk [17]: not detected | Decomposition efficiency of genistin family in roasted soy flour [18]: 38.5% | Decomposition efficiency of genistin family in soymilk [18]: not detected | Decomposition efficiency of genistin family in roasted soy flour [19]: 31.7% | Decomposition efficiency of genistin family in soymilk [19]: not detected | Decomposition efficiency of genistin family in roasted soy flour [20]: 39.5% | Decomposition efficiency of genistin family in soymilk [20]: 0.6% | Decomposition efficiency of genistin family in concentrated soybean protein [21]: 42.9% | Decomposition efficiency of genistin family in defatted soybean [21]: 1.7% | Decomposition efficiency of genistin family in concentrated soybean protein [22]: 43.1% | Decomposition efficiency of genistin family in defatted soybean [22]: 0.7% | Decomposition efficiency of genistin family in concentrated soybean protein [23]: 41.1% | Decomposition efficiency of genistin family in defatted soybean [23]: 0.2% | Decomposition efficiency of genistin family in concentrated soybean protein [24]: 39.0% | Decomposition efficiency of genistin family in defatted soybean [24]: 0.1% | Decomposition efficiency of genistin family in concentrated soybean protein [25]: 41.1% | Decomposition efficiency of genistin family in defatted soybean [25]: 0.4% | Decomposition efficiency of genistin family in roasted soy flour [26]: 45.7% | Decomposition efficiency of genistin family in soymilk [26]: 0.6% | Decomposition efficiency of genistin family in roasted soy flour [27]: 42.5% | Decomposition efficiency of genistin family in soymilk [27]: not detected | Decomposition efficiency of genistin family in roasted soy flour [28]: 34.0% | Decomposition efficiency of genistin family in soymilk [28]: not detected | Decomposition efficiency of genistin family in roasted soy flour [29]: 27.3% | Decomposition efficiency of genistin family in soymilk [29]: not detected | Decomposition efficiency of genistin family in roasted soy flour [30]: 39.9% | Decomposition efficiency of genistin family in soymilk [30]: 0.7% | Decomposition efficiency of genistin family in concentrated soybean protein [31]: 43.1% | Decomposition efficiency of genistin family in defatted soybean [31]: 1.5% | Decomposition efficiency of genistin family in concentrated soybean protein [32]: 45.2% | Decomposition efficiency of genistin family in defatted soybean [32]: 1.2% | Decomposition efficiency of genistin family in concentrated soybean protein [33]: 44.0% | Decomposition efficiency of genistin family in defatted soybean [33]: 1.2% | Decomposition efficiency of genistin family in concentrated soybean protein [34]: 43.4% | Decomposition efficiency of genistin family in defatted soybean [34]: 1.1% | Decomposition efficiency of genistin family in concentrated soybean protein [35]: 42.3% | Decomposition efficiency of genistin family in defatted soybean [35]: 1.3% | Decomposition efficiency of genistin family in roasted soy flour [36]: 45.5% | Decomposition efficiency of genistin family in soymilk [36]: 0.9% | Decomposition efficiency of genistin family in roasted soy flour [37]: 43.6% | Decomposition efficiency of genistin family in soymilk [37]: not detected | Decomposition efficiency of genistin family in roasted soy flour [38]: 40.5% | Decomposition efficiency of genistin family in soymilk [38]: not detected | Decomposition efficiency of genistin family in roasted soy flour [39]: 38.8% | Decomposition efficiency of genistin family in soymilk [39]: not detected | Decomposition efficiency of genistin family in roasted soy flour [40]: 44.3% | Decomposition efficiency of genistin family in soymilk [40]: 1.1% | Decomposition efficiency of genistin family in concentrated soybean protein [41]: 43.0% | Decomposition efficiency of genistin family in defatted soybean [41]: 1.5% | Decomposition efficiency of genistin family in concentrated soybean protein [42]: 44.0% | Decomposition efficiency of genistin family in defatted soybean [42]: 1.8% | Decomposition efficiency of genistin family in concentrated soybean protein [43]: 43.6% | Decomposition efficiency of genistin family in defatted soybean [43]: 2.1% | Decomposition efficiency of genistin family in concentrated soybean protein [44]: 43.4% | Decomposition efficiency of genistin family in defatted soybean [44]: 2.5% | Decomposition efficiency of genistin family in concentrated soybean protein [45]: 41.4% | Decomposition efficiency of genistin family in defatted soybean [45]: 2.4% | Decomposition efficiency of genistin family in roasted soy flour [46]: 45.3% | Decomposition efficiency of genistin family in soymilk [46]: 0.9% | Decomposition efficiency of genistin family in roasted soy flour [47]: 48.5% | Decomposition efficiency of genistin family in soymilk [47]: 0.9% | Decomposition efficiency of genistin family in roasted soy flour [48]: 48.2% | Decomposition efficiency of genistin family in soymilk [48]: 1.0% | Decomposition efficiency of genistin family in roasted soy flour [49]: 47.7% | Decomposition efficiency of genistin family in soymilk [49]: 2.3% | Decomposition efficiency of genistin family in roasted soy flour [50]: 43.4% | Decomposition efficiency of genistin family in soymilk [50]: 2.5%
